Results as given in patent US20260209777A1, “TARGETING GLYCOSYLPHOSPHATIDYLINOSITOL (GPI) PATHWAY PROTEINS TO TREAT OVARIAN CANCER” (UNIVERSITY OF MASSACHUSETTS, priority 2023, published 2026).

How the values were obtained:
Assay type in all cases: cell-based, human
[1] = system: CD24 cell surface expression in OVCAR8 cells; assay: CD24 flow cytometry analysis in OVCAR8 cells; conditions: OVCAR8; 3 days; bestatin 10 or 20 μM, tosedostat 5 or 10 μM, ARM1 1 or 2 μM; vs DMSO
Method: (§1) Flow Cytometry Analysis: For cell surface protein staining, 1×10^5-1×10^6 cells were first incubated with Fc receptor blocking solution, Human TruStain FcXTM (BioLegend, Cat #422301) for 10 minutes at room temperature. Cells were washed once in FACS buffer (1×PBS, 1.0% bovine serum albumin (BSA) (Sigma) and 0.2% sodium azide (Sigma), and then incubated with antibodies (given below) for 30 minutes at 4° C. in the dark. Cells were also stained with 7-AAD (Biolegend, Cat #420404) for dead cell exclusion, and flow cytometry analysis was performed using a Bio-Rad ZE5 Cell Analyzer. Following antibodies used in this study (all antibodies were used at 1:50 dilution unless otherwise noted): APC anti-human CD24 (BioLegend, Cat #311118, clone ML5), PE anti-human CD24 (eBioscience, Cat #12-0247-42, clone SN3), APC anti-human CD47 (BioLegend, Cat #323124, clone CC2C6), APC anti-human § 2-microglobulin (BioLegend, Cat #395711, clone […]), PE anti-human HLA-A2 (MHC-class I) (BioLegend, Cat #343305, clone BB7.2), APC anti-human CD11b (BioLegend, Cat #982604, clone ICRF44), APC anti-mouse F4/80 antibody (BioLegend, Cat #123116, clone BM8), APC-streptavidin (Thermo Fisher Scientific, Cat #SA1005, 1:100 dilution), PE anti-Calreticulin (Invitrogen, Catalog #MA5-15382, 1:200 dilution). For intracellular staining, cells were fixed with 1% paraformaldehyde for 5 min and permeabilized using the True-Nuclear Transcription Factor Buffer Set (BioLegend, Cat #424401) before the addition of the antibody. Small Molecule Inhibitor and Drug Treatments: OVCAR8 or SKOV3 cells were treated for 3 days with bestatin (Ubenimex) (SelleckChem, Cat #S1591) at 5, 10 or 20 μM (as indicated in the figure legends), Tosedostat (Medchem Express, Cat #HY-14807) at 5 μM or 10 μM (as indicated in the figure legends) or ARM-1 (Medchem Express, Cat #HY-W027340) at 1, or 2 μM (as indicated in the figure legends). Inhibitors were replenished every 24 hours. DMSO (Sigma Aldrich, Cat #D8418) was used as a vehicle. OVCAR8 cells were treated with Docetaxel (SelleckChem, Cat #S1148) at 100 nM or Carboplatin (SelleckChem, Cat #S1215 at 100 nM or Doxorubicin (SelleckChem, Cat #E2516) at 50 nM for 12 hours.

[2] = system: OVCAR8 cells; assay: In vitro phagocytosis assay of OVCAR8 cells by PBMC-derived M2 macrophages; conditions: OVCAR8; bestatin 20 μM, tosedostat 20 μM, ARM1 2 μM; vs DMSO
Excerpt: Macrophage Generation and Stimulation: Primary human donor-derived macrophages were generated as described previously (Martinez, Curr Protocol Immunol 2012, Chapter 14:14.28.1-14.28.23). In brief, Leukopaks from anonymous donors were obtained from the Rhode Island Blood (Providence, RI) and peripheral blood […] (PBMCs) were isolated by density gradients centrifugation using Ficoll Paque Plus (Sigma-Aldrich, Cat #17-1440-02) followed by RBC lysis using RBC lysis buffer (eBioscience, Cat #00-4333-57). For monocyte isolation, PBMCs were incubated in Monocyte Attachment Medium (Sigma-Aldrich, Cat #C-28051) for 1 hour at 37° C. and 5% CO2 and then washed three times in Iscove's Modified Dulbecco's Medium (IMDM) (Gibco, Cat #12440053) to remove non-adherent cells. The remaining monocytes were detached and seeded in 96-well plates and cultured at 37° C. and 5% CO2 in IMDM supplemented with 10% FBS (Atlanta Biologicals, Cat #S11550) and 20 ng/ml recombinant human M-CSF (Peprotech, Cat #AF-300-25). After 4 days monocytes were then treated with 20 ng/ml recombinant human IL-4 (Peprotech, Cat #200-04) and 10 ng/mL recombinant human IL-10 (PeproTech, Cat #200-10) for another 3-4 days to obtain M2 polarized macrophages. Macrophage differentiation was confirmed morphologically using microscopy. M2-macrophage polarization was confirmed by immunophenotyping of the M2 marker CD206 using PE-conjugated anti-human anti-CD206 antibody (BioLegend, Cat #321106, clone 15-2, 1:100 dilution). In vitro Phagocytosis Assays: To facilitate the quantification of phagocytic events, we adapted a microscopy-based fluorescence phagocytosis […] al., J Immunol Methods 2009, 342(1-2):71-7; Lindner et al., Biotechniques 2020, 68(5):245-250) for use with a Celigo imaging cytometer. […] Cells were incubated with pHrodo Red, SE (Invitrogen, Cat #P36600) on ice for 30 min and then co-cultured with PBMC-derived M2 macrophages (prepared as described above) at a ratio of 1:2 (OVCAR8/B cells: macrophages) for 2 hours in a humidified 5% CO2 incubator at 37° C. Phagocytic events were quantified by counting the number of red fluorescent (pHrodo+) cells per well using a Celigo Imaging Cytometer (Nexcelom). EmGFP was used for the visualization of cancer cells in imaging Phagocytic events were also quantified using a previously-described flow cytometry-based assay (Barkal et al., Nature 2019, 572(7769):392-396; […] et al., Biomedicines 2022, 10(5):1175). In brief, M2 macrophages co-cultured with OVCAR8/EmGFP-luc cells were detached using TrypLE Express (GibcoTM, cat #12604013), stained with APC anti-human CD11b clone ICRF44 (BioLegend, Cat #982604) and analyzed by flow cytometry (BioRad ZE5). Double-positive EmGFP+CD11b+ cells were considered phagocytic events.

[3] = system: CALR cell surface expression in OVCAR8 cells; assay: Flow cytometry analysis of Calreticulin (CALR) in OVCAR8 cells; conditions: OVCAR8, 12 hours; docetaxel 100 nM, carboplatin 100 nM, doxorubicin 50 nM; vs DMSO (FIG. 11A)
Method: as §1, with “OVCAR8 cells were treated with Docetaxel (SelleckChem, Cat #S1148) at 100 nM or Carboplatin (SelleckChem, Cat #S1215 at 100 nM or Doxorubicin (SelleckChem, Cat #E2516) at 50 nM for 12 hours.” left out

Compound	CD24 cell surface expression (MFI) [1]	macrophage-mediated phagocytosis [2]	CALR cell surface expression [3]
Nc1nc(-c2ccc(Cc3ccccc3)cc2)cs1 [ARM1]	decreased	increased	
N.N.O=C([O-])C1(C(=O)[O-])CCC1.[Pt+2] [carboplatin]			did not
CC(=O)O[C@@]12CO[C@@H]1C[C@H](O)[C@@]1(C)C(=O)[C@H](O)C3=C(C)[C@@H](OC(=O)[C@H](O)[C@@H](NC(=O)OC(C)(C)C)c4ccccc4)C[C@@](O)([C@@H](OC(=O)c4ccccc4)[C@H]21)C3(C)C [docetaxel]			induced robust
COc1cccc2c1C(=O)c1c(O)c3c(c(O)c1C2=O)C[C@@](O)(C(=O)CO)C[C@@H]3O[C@H]1C[C@H](N)[C@H](O)[C@H](C)O1 [doxorubicin]			did not
